Measured values: publication PMC10278977, “Caenorhabditis elegans NMAD-1 functions as a demethylase for actin” (Journal of Molecular Cell Biology, 2023)

Assays:
[1] = target: T1, CTD-deleted NMAD-1 (ΔCTD, residues 1–259) (Caenorhabditis elegans, UniProt Q8MNT9); assay: binding affinity measurement, method not given
T1 construct: residues 1-259, C-terminal domain deleted
T1 sequence (Q8MNT9 1-259): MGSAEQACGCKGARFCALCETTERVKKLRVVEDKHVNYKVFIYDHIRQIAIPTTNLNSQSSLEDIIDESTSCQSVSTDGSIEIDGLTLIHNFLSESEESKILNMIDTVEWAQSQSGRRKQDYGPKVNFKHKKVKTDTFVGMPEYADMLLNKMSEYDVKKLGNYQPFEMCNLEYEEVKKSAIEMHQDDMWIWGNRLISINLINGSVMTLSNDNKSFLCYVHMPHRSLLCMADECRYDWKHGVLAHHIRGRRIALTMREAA
From the text: binding affinity measurement, method not told in main text on CTD-deleted NMAD-1 (ΔCTD, residues 1–259) | the CTD-deleted NMAD-1 retained the NOG binding affinity

[2] = target: T2, NMAD-1_32–291 (NMAD-1 truncation Δ1–31) (Caenorhabditis elegans, UniProt Q8MNT9); assay: binding affinity measurement, method not given
T2 construct: residues 32-291, N-terminal flexible region removed
T2 sequence (Q8MNT9 32-291): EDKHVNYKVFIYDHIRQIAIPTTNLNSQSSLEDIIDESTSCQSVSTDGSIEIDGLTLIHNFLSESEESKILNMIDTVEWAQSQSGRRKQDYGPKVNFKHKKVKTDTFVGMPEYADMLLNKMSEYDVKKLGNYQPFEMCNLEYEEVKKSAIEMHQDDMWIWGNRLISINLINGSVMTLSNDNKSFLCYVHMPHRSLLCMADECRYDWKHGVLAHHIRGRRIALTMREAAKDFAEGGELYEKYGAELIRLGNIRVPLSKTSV
From the text: binding affinity measurement, method not told in main text on NMAD-1_32–291 (NMAD-1 truncation Δ1–31) | NOG as the full-length NMAD-1 (Supplementary Figure S3C)

NMAD-1 (WT, full-length) = target: T3, NMAD-1 (WT, full-length) (Caenorhabditis elegans, UniProt Q8MNT9); assay: isothermal titration calorimetry; type: binding
T3 construct: recombinant full-length protein
T3 sequence (Q8MNT9 1-291): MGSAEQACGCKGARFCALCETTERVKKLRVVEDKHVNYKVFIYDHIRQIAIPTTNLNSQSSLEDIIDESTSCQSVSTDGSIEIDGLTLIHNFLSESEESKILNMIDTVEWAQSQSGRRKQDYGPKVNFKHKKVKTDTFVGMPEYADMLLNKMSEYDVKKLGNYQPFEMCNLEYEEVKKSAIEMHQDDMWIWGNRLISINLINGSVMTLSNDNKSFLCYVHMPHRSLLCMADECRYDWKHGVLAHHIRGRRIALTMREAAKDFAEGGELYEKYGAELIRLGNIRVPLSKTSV
From the text: isothermal titration calorimetry on NMAD-1 (WT, full-length) | the cofactor analog N-oxalylglycine (NOG) with dissociation constants (KD) of […]

Kd [1]: 1680 ± 10 nM
Kd [2]: 1250 ± 100 nM
Kd (NMAD-1 (WT, full-length)): 1070 ± 110 nM
SMILES: O=C(O)CNC(=O)C(=O)O [N-oxalylglycine]
